Reference: patent US20240108732A1, “Formulated and/or Co-Formulated Lipid Nanocarriers Compositions Containing Toll-Like Receptor ("TLR") Agonist Prodrugs Useful In The Treatment of Cancer and Methods Thereof” (Nammi Therapeutics, Inc., priority 2022, published 2024)

Key:
TLR7 = target: T1, TLR7 (Mus musculus, UniProt P58681); assay: Example 13: RAW-Blue cells / QUANTI-Blue SEAP reporter assay; type: cell-based; settings: 24 h incubation
T1 construct: Raw-Blue cells that express a variety of TLRs including TLR7 and TLR8; host or cells: RAW-Blue cells
T1 sequence (P58681 27-1050): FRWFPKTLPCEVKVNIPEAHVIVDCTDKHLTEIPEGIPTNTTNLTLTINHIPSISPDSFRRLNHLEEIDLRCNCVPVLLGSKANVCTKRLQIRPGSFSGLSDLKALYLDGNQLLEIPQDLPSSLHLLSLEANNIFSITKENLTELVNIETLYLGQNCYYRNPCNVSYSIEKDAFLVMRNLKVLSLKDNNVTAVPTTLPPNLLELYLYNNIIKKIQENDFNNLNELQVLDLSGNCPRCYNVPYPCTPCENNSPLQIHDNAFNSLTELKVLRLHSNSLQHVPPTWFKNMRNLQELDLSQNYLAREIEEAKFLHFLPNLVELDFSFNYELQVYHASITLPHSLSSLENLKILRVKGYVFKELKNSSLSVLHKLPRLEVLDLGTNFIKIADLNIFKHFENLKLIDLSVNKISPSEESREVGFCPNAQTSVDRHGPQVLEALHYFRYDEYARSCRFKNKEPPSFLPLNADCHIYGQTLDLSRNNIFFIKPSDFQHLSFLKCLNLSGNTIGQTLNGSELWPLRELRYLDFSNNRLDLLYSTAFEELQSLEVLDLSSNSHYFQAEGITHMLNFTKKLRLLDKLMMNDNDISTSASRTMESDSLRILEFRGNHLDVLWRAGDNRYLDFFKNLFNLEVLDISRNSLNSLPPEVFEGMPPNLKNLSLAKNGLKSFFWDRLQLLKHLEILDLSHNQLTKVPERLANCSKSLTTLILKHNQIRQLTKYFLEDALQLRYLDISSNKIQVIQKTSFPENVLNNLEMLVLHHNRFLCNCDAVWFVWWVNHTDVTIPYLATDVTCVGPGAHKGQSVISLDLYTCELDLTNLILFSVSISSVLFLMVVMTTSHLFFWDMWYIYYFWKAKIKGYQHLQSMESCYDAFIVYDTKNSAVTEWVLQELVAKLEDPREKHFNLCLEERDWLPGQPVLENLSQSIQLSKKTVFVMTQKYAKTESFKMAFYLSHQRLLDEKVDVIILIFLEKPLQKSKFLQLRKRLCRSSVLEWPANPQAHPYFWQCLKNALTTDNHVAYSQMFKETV
Description: By way of background, RAW-Blue™ Cells and QUANTI-Blue™ (InvivoGen, San Diego, CA) assay were utilized. Raw Blue™ express […] Toll-like receptors (“TLRs”) and an NF-κB/AP-1-inducible SEAP (secreted embryonic alkaline phosphatase) reporter gene. Stimulation of these cells with TR12 leads to NF-κB activation through TLR7 which can be measured by detection of SEAP levels. Briefly, RAW-Blue™ Cells were incubated with TR12-SA (TR12-Stearic Acid) and SLNP-TR12 (TR12 Stearic Acid in Solid Lipid Nanoparticle from) at different concentration. After 24 h incubation with the compounds, TLR stimulation was assessed by measuring the levels of SEAP optimal density (OD) using QUANTI-Blue™ assay. ODs were normalized to the control (untreated) group. […] (See, FIG. 21).

human TLR8 = target: T2, human TLR8 (Homo sapiens, UniProt Q9NR97); assay: Example 15: HEK-Blue hTLR8 cells / QUANTI-Blue SEAP assay; type: cell-based; settings: from RAW-Blue and HEK-Blue hTLR8 results
T2 construct: host or cells: HEK-Blue hTLR8 cells
T2 sequence (Q9NR97 27-1041): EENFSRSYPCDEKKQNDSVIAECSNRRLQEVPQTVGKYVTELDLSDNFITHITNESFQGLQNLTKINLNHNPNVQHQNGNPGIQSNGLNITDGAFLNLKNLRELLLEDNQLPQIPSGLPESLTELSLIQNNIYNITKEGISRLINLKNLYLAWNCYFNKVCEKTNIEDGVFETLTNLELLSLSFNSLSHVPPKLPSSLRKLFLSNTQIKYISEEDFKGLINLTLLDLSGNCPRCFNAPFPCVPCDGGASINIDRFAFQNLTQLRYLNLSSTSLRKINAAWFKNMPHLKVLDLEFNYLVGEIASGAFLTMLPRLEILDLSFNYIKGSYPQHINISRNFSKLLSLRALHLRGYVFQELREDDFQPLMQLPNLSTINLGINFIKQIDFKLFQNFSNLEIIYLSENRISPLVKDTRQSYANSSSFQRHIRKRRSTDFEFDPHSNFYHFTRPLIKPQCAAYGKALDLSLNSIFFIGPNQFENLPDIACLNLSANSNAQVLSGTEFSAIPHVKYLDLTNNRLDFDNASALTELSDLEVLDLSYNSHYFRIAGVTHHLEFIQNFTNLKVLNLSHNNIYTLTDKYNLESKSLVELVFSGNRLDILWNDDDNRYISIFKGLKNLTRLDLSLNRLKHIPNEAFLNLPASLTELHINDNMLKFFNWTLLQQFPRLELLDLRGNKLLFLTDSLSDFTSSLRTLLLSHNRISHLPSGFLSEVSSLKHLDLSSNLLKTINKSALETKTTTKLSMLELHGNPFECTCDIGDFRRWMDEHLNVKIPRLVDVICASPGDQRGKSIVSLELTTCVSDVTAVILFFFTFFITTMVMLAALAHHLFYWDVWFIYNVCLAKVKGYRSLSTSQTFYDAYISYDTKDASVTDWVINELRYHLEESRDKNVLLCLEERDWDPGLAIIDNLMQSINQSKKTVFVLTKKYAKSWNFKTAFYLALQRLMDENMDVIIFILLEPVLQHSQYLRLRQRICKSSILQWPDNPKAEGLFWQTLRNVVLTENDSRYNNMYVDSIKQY
Description: In another experiment, in vitro biological activity of SLNP-TR12 specificity to TLR7 was confirmed using the following experiment. […] It is noted that despite Raw-Blue cells that express a variety of TLRs including TLR7 and TLR8, the HEK-Blue™ hTLR8 cells dominantly express the human TLR8 gene and an NF-κB/AP-1-inducible SEAP (secreted embryonic alkaline phosphatase) reporter gene. Thus, SEAP levels produced upon TLR8 stimulation can be readily determined by performing the assay in HEK-Blue™ Detection.
Concurrently, HEK-Blue TLR8 were incubated with SLNP-TR5 or SLNP-TR12 at different concentrations. After 24 h incubation with the compounds, TLR stimulation was assessed by measuring the levels of SEAP optimal density (OD) using QUANTI-Blue™ assay. ODs were normalized to the control (untreated) group (See, FIG. 23(B)).

| TLR stimulation (SEAP OD normalized to untreated control) (TLR7) | specificity TLR7 versus TLR8 (human TLR8) | Structure (SMILES) |
| --- | --- | --- |
| stimulation of TLR-7 | – | CCCCCCCCCCCCCCCCCC(=O)OCOC(=O)N1CCN(c2ccc(Cn3c(=O)[nH]c4c(N)nc(NCCCC)nc43)cn2)CC1 [TR12 prodrug] |
| – | stimulates both TLR7 and TLR8 | CCCCCCCCCCCCCCCCCC(=O)NCCCCOn1c(CCCC)nc2c(N)nc3ccccc3c21 [TR5, Telratolimod] |
